The results in this text go back to patent US10947237B2, “Antimicrobial compounds and methods of making and using the same” (BIOVERSYS AG, priority 2015, dated 2021).

One may read the MIC as the lowest concentration found to suppress growth. Low readings indicate greater potency, high ones weaker potency.

The test system of test [1] is Staphylococcus aureus (S. aureus) 11540 strain. The test can be described thus: standard microdilution assay, minimum inhibitory concentration (MIC). It counts as cell-based. To be noted: Table 2, 11540 strain. Put shortly:
(§1)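 MICs were determined by broth microdilution per CLSI protocols (M7-A8, M100-S20), with reference strains run for quality control. Tested strains were E. coli ATCC25922 and S. aureus 11540. Activity was scored +/− against a 16 µg/mL cutoff.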

Test [2] has as its system Eschericia coli (E. Coli) strain ATCC25922. The description is as above. It counts as cell-based. To be noted: Escherichia coli; Table 2; strain ATCC25922. The procedure, abridged:
as §1

Consider `C[C@H](N)CCCc1cc(Cl)c(F)c(-c2cc3cn(-c4ccc(CN[C@H](CCNC(=N)N)CNc5ncccc5F)cc4)c(=O)nc3[nH]2)c1` [Compound 106], for which the minimum inhibitory concentration (MIC) in test [1] and in test [2] was at most 16 µg/mL each time.
`C[C@H](N)CCCc1cc(Cl)c(F)c(-c2cc3cn(-c4ccc(CN[C@@H](CF)CCNC(=N)N)cc4)c(=O)nc3[nH]2)c1` [Compound 107]: the MIC in test [1] and in test [2] was at most 16 µg/mL throughout.
For `C[C@H](N)CCCc1cc(Cl)c(F)c(-c2cc3cn(-c4ccc([C@@H]5C[C@H](Nc6nccs6)C[C@@H](CCNC(=N)N)O5)cc4)c(=O)nc3[nH]2)c1` [Compound 108], the MIC in test [1] and in test [2] was at most 16 µg/mL in each case.
Turning to `C[C@H](N)CCCc1cc(Cl)c(F)c(-c2[nH]c3nc(=O)n(-c4ccc(CN[C@H](C)CCNC(=N)N)cc4)cc3c2[N+](=O)[O-])c1` [Compound 109], the figures for the MIC in test [1] and in test [2] were at most 16 µg/mL and above 16 µg/mL, respectively.
In the same order, the values of `C[C@H](N)CCCc1cc(-c2[nH]c3nc(=O)n(-c4ccc([C@H](C)NCCCNC(=N)N)cc4)cc3c2[N+](=O)[O-])c(F)c(Cl)c1[N+](=O)[O-]` [Compound 110] are above 16 µg/mL and above 16 µg/mL.
Take `C[C@H](N)CCCc1cc(Cl)c(F)c(-c2[nH]c3nc(=O)n(-c4ccc([C@H](C)NCCCNC(=N)N)cc4)cc3c2[N+](=O)[O-])c1[N+](=O)[O-]` [Compound 111]: the MIC in test [1] was at most 16 µg/mL; in test [2] it was above 16 µg/mL.
In the same order, the values of `C[C@@H](CCNC(=N)N)OCc1ccc(-n2cc3cc(CCNC4CCNCC4)[nH]c3nc2=O)cc1` [Compound 112] are above 16 µg/mL and above 16 µg/mL.
In the case of `N=C(N)NCC[C@H](CNc1ncc[nH]1)OCc1ccc(-n2cc3cc(C4CCNC4)[nH]c3nc2=O)cc1` (stereo partly drawn) [Compound 113], the MIC in test [1] was above 16 µg/mL; in test [2], at most 16 µg/mL.
In the same order, the values of `N=C(N)NCC[C@H](CNC(=N)N)OCc1ccc(-n2cc3cc(CCNC4CCNCC4)[nH]c3nc2=O)cc1` [Compound 114] are at most 16 µg/mL and at most 16 µg/mL.
With `CC(=N)NCC[C@@H]1CCC[C@@H](c2ccc(-n3cc4cc(C5CCNC5)[nH]c4nc3=O)cc2)N1` (stereo partly drawn) [Compound 115], the MIC in test [1] and in test [2] was at most 16 µg/mL each time.
For `CC1=NCC[C@@H]2CCC[C@@H](c3ccc(-n4cc5cc(C6CCNC6)[nH]c5nc4=O)cc3)N12` (stereo partly drawn) [Compound 116], the MIC in test [1] and in test [2] was above 16 µg/mL in each case.
For the molecule `CC(=N)NCC[C@@H]1CCC[C@@H](c2ccc(-n3cc4cc(CCNC5CCNCC5)[nH]c4nc3=O)cc2)N1` [Compound 117], the minimal inhibitory concentration (MIC) in test [1] and in test [2] was at most 16 µg/mL each time.
As for `CC1=NCC[C@@H]2CCC[C@@H](c3ccc(-n4cc5cc(CCNC6CCNCC6)[nH]c5nc4=O)cc3)N12` [Compound 118], the MIC in test [1] and in test [2] was above 16 µg/mL throughout.
Consider `C[C@H](N)CCCc1cc(Cl)c(F)c(-c2cc3cn(-c4ccc([C@H]5CC(N)C[C@H](CCNC(=N)N)O5)cc4)c(=O)nc3[nH]2)c1` (stereo partly drawn) [Compound 119], for which the MIC in test [1] and in test [2] was at most 16 µg/mL each time.
Turning to `CC(=N)NCC[C@H]1CC(N)C[C@H](c2ccc(-n3cc4cc(-c5cc(CCC[C@H](C)N)cc(Cl)c5F)[nH]c4nc3=O)cc2)O1` (stereo partly drawn) [Compound 120], the MIC in test [1] and in test [2] was at most 16 µg/mL in each case.
For `N=C(N)NCC[C@H]1CC(N)C[C@H](c2ccc(-n3cc4cc(C5CCNC5)[nH]c4nc3=O)cc2)O1` (stereo partly drawn) [Compound 121], the MIC is above 16 µg/mL in test [1] and at most 16 µg/mL in test [2].
In the same order, the values of `N=C(N)NCC[C@H]1CC(N)C[C@H](c2ccc(-n3cc4cc(CCNC5CCNCC5)[nH]c4nc3=O)cc2)O1` (stereo partly drawn) [Compound 122] are at most 16 µg/mL and at most 16 µg/mL.
In the case of `C[C@H](N)CCCc1cc(Cl)c(F)c(-c2cc3cn(-c4ccc([C@@H]5C[C@@H](Nc6nccs6)C[C@@H](CCNC(=N)N)O5)cc4)c(=O)nc3[nH]2)c1` [Compound 123], the minimum inhibitory concentration (MIC) was at most 16 µg/mL in test [1] and above 16 µg/mL in test [2].
In the same order, the values of `N=C(N)NCC[C@@H]1C[C@H](Nc2nccs2)C[C@@H](c2ccc(-n3cc4cc(C5CCNC5)[nH]c4nc3=O)cc2)O1` (stereo partly drawn) [Compound 124] are above 16 µg/mL and above 16 µg/mL.
In the same order, the values of `N=C(N)NCC[C@@H]1C[C@@H](Nc2nccs2)C[C@@H](c2ccc(-n3cc4cc(C5CCNC5)[nH]c4nc3=O)cc2)O1` (stereo partly drawn) [Compound 125] are above 16 µg/mL and above 16 µg/mL.
In the same order, the values of `N=C(N)NCC[C@H](CF)NCc1ccc(-n2cc3cc(C4CCNC4)[nH]c3nc2=O)cc1` (stereo partly drawn) [Compound 126] are above 16 µg/mL and above 16 µg/mL.
For the molecule `C[C@H](N)CCCc1cc(Cl)c(F)c(-c2cc3cn(-c4ccc([C@H]5CC(N)C[C@H](CCN)O5)cc4)c(=O)nc3[nH]2)c1` (stereo partly drawn) [Compound 127], the minimal inhibitory concentration (MIC) in test [1] and in test [2] was at most 16 µg/mL each time.
On to `C[C@H](N)CCCc1cc(Cl)c(F)c(-c2cc3cn(-c4ccc([C@H]5CC(NC(=N)N)C[C@H](CCNC(=N)N)O5)cc4)c(=O)nc3[nH]2)c1` (stereo partly drawn) [Compound 128], for which the MIC in test [1] and in test [2] was at most 16 µg/mL throughout.
In the case of `N=C(N)NCC[C@H](CNC(=N)N)OCc1ccc(-n2cc3cc(C4CCNC4)[nH]c3nc2=O)cc1` (stereo partly drawn) [Compound 129], the MIC in test [1] and in test [2] was at most 16 µg/mL throughout.
For the molecule `O=c1nc2[nH]c(C3CCNC3)cc2cn1-c1ccc([C@@H]2CCC[C@@H](CCc3ncc[nH]3)N2)cc1` (stereo partly drawn) [Compound 130], the figures for the MIC in test [1] and in test [2] were above 16 µg/mL and at most 16 µg/mL, respectively.
In the same order, the values of `C[C@@H](CCNC(=N)N)OCc1ccc(-n2cc3cc(C4CCNC4)[nH]c3nc2=O)cc1` (stereo partly drawn) [Compound 131] are above 16 µg/mL and above 16 µg/mL.
In the same order, the values of `C=C[C@@H](CCNC(=N)N)OCc1ccc(-n2cc3cc(-c4cc(CCC[C@H](C)N)cc(Cl)c4F)[nH]c3nc2=O)cc1` [Compound 132] are at most 16 µg/mL and at most 16 µg/mL.
In the same order, the values of `C[C@H](N)CCCc1cc(Cl)c(F)c(-c2cc3cn(-c4ccc(N5CCO[C@H](CCNC(=N)N)C5)cc4)c(=O)nc3[nH]2)c1` [Compound 133] are at most 16 µg/mL and at most 16 µg/mL.
With `C[C@H](N)CCCc1cc(Cl)c(F)c(-c2cc3cn(-c4ccc(N5CCO[C@@H](CCNC(=N)N)C5)cc4)c(=O)nc3[nH]2)c1` [Compound 134], the MIC in test [1] and in test [2] was at most 16 µg/mL in each case.
`C[C@H](N)CCCc1cc(Cl)c(F)c(-c2cc3cn(-c4ccc(CO[C@@H](CF)CCNC(=N)N)cc4)c(=O)nc3[nH]2)c1` [Compound 135]: the MIC in test [1] and in test [2] was at most 16 µg/mL each time.
In the case of `N=C(N)NCC[C@H](CF)OCc1ccc(-n2cc3cc(C4CCNC4)[nH]c3nc2=O)cc1` (stereo partly drawn) [Compound 136], the MIC in test [1] and in test [2] was above 16 µg/mL throughout.
`CC(=N)NCC[C@H]1CC(NC(C)=N)C[C@H](c2ccc(-n3cc4cc(-c5cc(CCC[C@H](C)N)cc(Cl)c5F)[nH]c4nc3=O)cc2)O1` (stereo partly drawn) [Compound 137]: the minimum inhibitory concentration (MIC) in test [1] and in test [2] was at most 16 µg/mL each time.
On to `C[C@H](N)CCCc1cc(Cl)c(F)c(-c2cc3cn(-c4ccc([C@H]5CC(NC6=NCCN6)C[C@H](CCNC6=NCCN6)O5)cc4)c(=O)nc3[nH]2)c1` (stereo partly drawn) [Compound 138], for which the MIC in test [1] and in test [2] was at most 16 µg/mL each time.
With `C=C[C@@H](CCNC(=N)N)NCc1ccc(-n2cc3cc(-c4cc([C@H]5CC[C@H](CN)O5)cc(Cl)c4F)[nH]c3nc2=O)cc1` [Compound 139], the MIC in test [1] and in test [2] was at most 16 µg/mL throughout.
With `C=C[C@@H](CCNC(=N)N)NCc1ccc(-n2cc3cc(-c4cc([C@H]5CC[C@@H](CN)O5)cc(Cl)c4F)[nH]c3nc2=O)cc1` [Compound 140], the MIC in test [1] and in test [2] was at most 16 µg/mL each time.
`C=C[C@@H](CCNC(=N)N)NCc1ccc(-n2cc3cc(-c4cc([C@@H]5CC[C@@H](CN)O5)cc(Cl)c4F)[nH]c3nc2=O)cc1` [Compound 141]: the MIC in test [1] and in test [2] was at most 16 µg/mL throughout.
In the case of `C=C[C@@H](CCNC(=N)N)NCc1ccc(-n2cc3cc(-c4cc([C@@H]5CC[C@H](CN)O5)cc(Cl)c4F)[nH]c3nc2=O)cc1` [Compound 142], the MIC in test [1] and in test [2] was at most 16 µg/mL in each case.
As for `C[C@H](N)CCCc1cc(Cl)c(F)c(-c2cc3cn(-c4ccc([C@H]5CC(N)C[C@H](CCNC6=NCCN6)O5)cc4)c(=O)nc3[nH]2)c1` (stereo partly drawn) [Compound 143], the MIC in test [1] and in test [2] was at most 16 µg/mL throughout.
Turning to `N=C(N)NCC[C@H]1CN(c2ccc(-n3cc4cc(CCNC5CCNCC5)[nH]c4nc3=O)cc2)CCO1` [Compound 144], the MIC in test [1] is above 16 µg/mL; in test [2] it was at most 16 µg/mL.
In the same order, the values of `N=C(N)NCC[C@H]1CN(c2ccc(-n3cc4cc(C5CCNC5)[nH]c4nc3=O)cc2)CCO1` (stereo partly drawn) [Compound 145] are above 16 µg/mL and above 16 µg/mL.
With `N=C(N)NCC[C@@H]1CN(c2ccc(-n3cc4cc(CCNC5CCNCC5)[nH]c4nc3=O)cc2)CCO1` [Compound 146], the MIC in test [1] and in test [2] was above 16 µg/mL in each case.
`N=C(N)NCC[C@@H]1CN(c2ccc(-n3cc4cc(C5CCNC5)[nH]c4nc3=O)cc2)CCO1` (stereo partly drawn) [Compound 147]: the MIC in test [1] and in test [2] was above 16 µg/mL throughout.
As to `C[C@H](NCCCNC(=N)N)c1ccc(-n2cc3cc(-c4cc([C@@H]5CC[C@@H](CN)O5)cc(Cl)c4F)[nH]c3nc2=O)cc1` [Compound 148], the MIC in test [1] and in test [2] was at most 16 µg/mL each time.
`C[C@H](NCCCNC(=N)N)c1ccc(-n2cc3cc(-c4cc([C@@H]5CC[C@H](CN)O5)cc(Cl)c4F)[nH]c3nc2=O)cc1` [Compound 149]: the MIC in test [1] and in test [2] was at most 16 µg/mL throughout.
In the case of `N=C(CF)NCC[C@@H]1CCC[C@@H](c2ccc(-n3cc4cc(-c5cc(CCC[C@@H](N)CO)cc(Cl)c5F)[nH]c4nc3=O)cc2)N1` [Compound 150], the MIC in test [1] and in test [2] was at most 16 µg/mL throughout.
